# Experimental data: publication PMC5499580 (Nucleic Acids Research, 2017)
# Columns and labels:
# VatB acetyltransferase = settings: cited from earlier work
# [1] = system: E. coli S30 extract translation system; format: biochemical; settings: 5 μM, luciferase mRNA, 37°C, 30 min
# ribosome [2] = test: Toe-printing analysis; format: biochemical
# ribosome [3] = settings: PURExpress, osmC mRNA; 50 μM; worded as known, no reference given; cited from earlier work
# 23S rRNA mutation A2503G = settings: cited from earlier work
# [4] = system: peptidyl transferase reaction; settings: polyU-guided in vitro translation system; cited from earlier work
# ribosome [5] = settings: compared with MADU on osmC mRNA; cited from earlier work
structure (smiles),measurement,setting,value
"CC1=C\[C@@H](O)C[C@@H](O)Cc2nc(co2)C(=O)N[C@H](C)C(=O)O[C@H](C(C)C)[C@H](C)/C=C/C(=O)NC\C=C\1 [MADU, madumycin II]",Effect of VatB acetylation of C12-hydroxyl on activity,VatB acetyltransferase,renders the drug inactive
same,Reduction of the efficiency of protein synthesis,[1],> 100 fold
same,Ribosome stalling on osmC mRNA,"ribosome [2]; PURExpress cell-free system, osmC mRNA, 0.5, 5 and 50 μM MADU",dose-dependent ribosome stalling at the start codon
same,"Progression to second codon, Gly vs Ile second codon","ribosome [2]; PURExpress, 5 µM MADU, mutated osmC mRNAs",noticeably more ribosomes progressing to the second codon in the case of glycine as compared with the isoleucine
"C=C(NC(=O)C(=C)NC(=O)c1csc(C2=N[C@@H]3c4csc(n4)[C@H]4NC(=O)c5csc(n5)[C@H]([C@](C)(O)[C@@H](C)O)NC(=O)[C@H]5CSC(=N5)/C(=C/C)NC(=O)[C@H]([C@@H](C)O)NC(=O)c5csc(n5)[C@]3(CC2)NC(=O)[C@H](C)NC(=O)C(=C)NC(=O)[C@H](C)NC(=O)[C@H]([C@@H](C)CC)N[C@@H]2C=Cc3c([C@H](C)O)cc(nc3[C@H]2O)C(=O)O[C@@H]4C)n1)C(N)=O [Thiostrepton, thiostrepton]",Ribosome stalling by positive control (first codon),ribosome [3],stall ribosomes at the first codon
O=C(N[C@H](CO)[C@H](O)c1ccc([N+](=O)[O-])cc1)C(Cl)Cl [chloramphenicol],Resistance conferred by A2503G,23S rRNA mutation A2503G,confers resistance
CC1=C\[C@@H](O)CC(=O)Cc2nc(co2)C(=O)N2CCC=C2C(=O)O[C@H](C(C)C)[C@H](C)/C=C/C(=O)NC\C=C\1 [virginiamycin M],Effect on peptidyl transferase reaction,[4],specifically inhibits the peptidyl transferase reaction
CC1=C\[C@@H](O)CC(=O)Cc2nc(co2)C(=O)N2CCC[C@@H]2C(=O)O[C@H](C(C)C)[C@H](C)/C=C/C(=O)NC\C=C\1 [pristinamycin IIB],Ribosome stalling in toe-printing,ribosome [5],ribosome stalling at the start codon
